Measured values reported in PubChem BioAssay AID1919000 (Molecular Pharmacology Branch, DTP, NCI, 2023).
One block for each molecule: values may come before it.

Tested on: 653999-131-R-J2-PDC complex spheroids, growth % test/control
Assay: Anticancer human tumor 653999-131-R-J2-PDC patient-derived lung adenocarcinoma cell line growth inhibition [AhR]
Conditions: for IC50: curve of first compound; for viability, T/C: stronger effect = lower value
Method in brief: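 Complex tumor spheroids co-cultured with HUVEC and human MSC stroma; AhR antagonists tested in combination with standard-of-care and investigational agents. Top concentration at or near clinical Cmax (else 10 microM), half-log dilutions; growth expressed as percent test/control.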

[1] = second compound 0.1 µM, first compound 0.000949 µM
[2] = second compound 0.1 µM, first compound 0.003 µM
[3] = second compound 0.1 µM, first compound 0.00949 µM
[4] = second compound 0.1 µM, first compound 0.03 µM
[5] = second compound 0.1 µM, first compound 0.0949 µM
[6] = second compound 0.1 µM, first compound 0.3 µM
[7] = second compound 0.316 µM, first compound 0.000949 µM
[8] = second compound 0.316 µM, first compound 0.003 µM
[9] = second compound 0.316 µM, first compound 0.00949 µM
[10] = second compound 0.316 µM, first compound 0.03 µM
[11] = second compound 0.316 µM, first compound 0.0949 µM
[12] = second compound 0.316 µM, first compound 0.3 µM
[13] = second compound 1 µM, first compound 0.000949 µM
[14] = second compound 1 µM, first compound 0.003 µM
[15] = second compound 1 µM, first compound 0.00949 µM
[16] = second compound 1 µM, first compound 0.03 µM
[17] = second compound 1 µM, first compound 0.0949 µM
[18] = second compound 1 µM, first compound 0.3 µM
[19] = second compound 3.16 µM, first compound 0.000949 µM
[20] = second compound 3.16 µM, first compound 0.003 µM
[21] = second compound 3.16 µM, first compound 0.00949 µM
[22] = second compound 3.16 µM, first compound 0.03 µM
[23] = second compound 3.16 µM, first compound 0.0949 µM
[24] = second compound 3.16 µM, first compound 0.3 µM
[25] = second compound 10 µM, first compound 0.000949 µM
[26] = second compound 10 µM, first compound 0.003 µM
[27] = second compound 10 µM, first compound 0.00949 µM
[28] = second compound 10 µM, first compound 0.03 µM
[29] = second compound 10 µM, first compound 0.0949 µM
[30] = second compound 10 µM, first compound 0.3 µM
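Also: spheroids exposed to agents for seven days.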
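For viability, T/C in this document: 100% = DMSO vehicle control viability.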

IC50 (second compound 0.1 µM): 20.4 nM | IC50 (second compound 0.316 µM): 20.2 nM | IC50 (second compound 1 µM): 19.6 nM | IC50 (second compound 3.16 µM): 20.7 nM | IC50 (second compound 10 µM): 22.1 nM
SMILES: CC(C)CC(NC(=O)C(Cc1ccccc1)NC(=O)c1cnccn1)B(O)O (stereo not given) + Cc1ccccc1N=Nc1ccc(NC(=O)c2ccnn2C)c(C)c1
viability, T/C [1]: 103% | viability, T/C [2]: 117% | viability, T/C [3]: 82.6% | viability, T/C [4]: 33.1% | viability, T/C [5]: 12.7% | viability, T/C [6]: 4.4% | viability, T/C [7]: 89.7% | viability, T/C [8]: 116% | viability, T/C [9]: 91% | viability, T/C [10]: 28.3% | viability, T/C [11]: 10.5% | viability, T/C [12]: 6.14% | viability, T/C [13]: 100% | viability, T/C [14]: 108% | viability, T/C [15]: 87.6% | viability, T/C [16]: 27.4% | viability, T/C [17]: 14.9% | viability, T/C [18]: 6.46% | viability, T/C [19]: 97.6% | viability, T/C [20]: 96.8% | viability, T/C [21]: 86.7% | viability, T/C [22]: 31.8% | viability, T/C [23]: 20.8% | viability, T/C [24]: 7.43% | viability, T/C [25]: 89.1% | viability, T/C [26]: 98.1% | viability, T/C [27]: 80% | viability, T/C [28]: 37.8% | viability, T/C [29]: 25.2% | viability, T/C [30]: 11.4%

IC50 (second compound 0.1 µM): 11.5 nM | IC50 (second compound 0.316 µM): 10.9 nM | IC50 (second compound 1 µM): 9.66 nM | IC50 (second compound 3.16 µM): 9.18 nM | IC50 (second compound 10 µM): 10.2 nM
SMILES: CCc1c2c(nc3ccc(O)cc13)-c1cc3c(c(=O)n1C2)COC(=O)[C@]3(O)CC + Cc1ccccc1N=Nc1ccc(NC(=O)c2ccnn2C)c(C)c1
viability, T/C [1]: 94.8% | viability, T/C [2]: 76.6% | viability, T/C [3]: 51% | viability, T/C [4]: 34.7% | viability, T/C [5]: 29.7% | viability, T/C [6]: 17.4% | viability, T/C [7]: 88% | viability, T/C [8]: 80.6% | viability, T/C [9]: 49.7% | viability, T/C [10]: 32.9% | viability, T/C [11]: 30.1% | viability, T/C [12]: 17.7% | viability, T/C [13]: 85.6% | viability, T/C [14]: 72.6% | viability, T/C [15]: 46% | viability, T/C [16]: 37.3% | viability, T/C [17]: 25.4% | viability, T/C [18]: 19.2% | viability, T/C [19]: 81.3% | viability, T/C [20]: 65% | viability, T/C [21]: 51.3% | viability, T/C [22]: 32.5% | viability, T/C [23]: 25.2% | viability, T/C [24]: 14.7% | viability, T/C [25]: 73.6% | viability, T/C [26]: 62.2% | viability, T/C [27]: 49.7% | viability, T/C [28]: 41% | viability, T/C [29]: 27.5% | viability, T/C [30]: 18.4%

IC50 (second compound 0.1 µM): > 10000 nM | IC50 (second compound 0.316 µM): > 10000 nM | IC50 (second compound 1 µM): > 10000 nM | IC50 (second compound 3.16 µM): > 10000 nM | IC50 (second compound 10 µM): > 10000 nM
SMILES: COc1cc(Nc2ncc3c(n2)-c2ccc(Cl)cc2C(c2c(F)cccc2OC)=NC3)ccc1C(=O)O + Cc1ccccc1N=Nc1ccc(NC(=O)c2ccnn2C)c(C)c1
viability, T/C (second compound 0.1 µM, first compound 0.0316 µM): 87.8% | viability, T/C (second compound 0.1 µM, first compound 0.1 µM): 74.9% | viability, T/C (second compound 0.1 µM, first compound 0.316 µM): 71.1% | viability, T/C (second compound 0.1 µM, first compound 1 µM): 58.2% | viability, T/C (second compound 0.1 µM, first compound 3.16 µM): 57.1% | viability, T/C (second compound 0.1 µM, first compound 10 µM): 64.3% | viability, T/C (second compound 0.316 µM, first compound 0.0316 µM): 93.4% | viability, T/C (second compound 0.316 µM, first compound 0.1 µM): 70.9% | viability, T/C (second compound 0.316 µM, first compound 0.316 µM): 71.9% | viability, T/C (second compound 0.316 µM, first compound 1 µM): 67.3% | viability, T/C (second compound 0.316 µM, first compound 3.16 µM): 57.9% | viability, T/C (second compound 0.316 µM, first compound 10 µM): 60.1% | viability, T/C (second compound 1 µM, first compound 0.0316 µM): 81% | viability, T/C (second compound 1 µM, first compound 0.1 µM): 74% | viability, T/C (second compound 1 µM, first compound 0.316 µM): 66.8% | viability, T/C (second compound 1 µM, first compound 1 µM): 62.2% | viability, T/C (second compound 1 µM, first compound 3.16 µM): 60.6% | viability, T/C (second compound 1 µM, first compound 10 µM): 53.8% | viability, T/C (second compound 3.16 µM, first compound 0.0316 µM): 83% | viability, T/C (second compound 3.16 µM, first compound 0.1 µM): 62.8% | viability, T/C (second compound 3.16 µM, first compound 0.316 µM): 70.5% | viability, T/C (second compound 3.16 µM, first compound 1 µM): 61.2% | viability, T/C (second compound 3.16 µM, first compound 3.16 µM): 62.9% | viability, T/C (second compound 3.16 µM, first compound 10 µM): 54.6% | viability, T/C (second compound 10 µM, first compound 0.0316 µM): 80.2% | viability, T/C (second compound 10 µM, first compound 0.1 µM): 66.9% | viability, T/C (second compound 10 µM, first compound 0.316 µM): 63.2% | viability, T/C (second compound 10 µM, first compound 1 µM): 71% | viability, T/C (second compound 10 µM, first compound 3.16 µM): 56.5% | viability, T/C (second compound 10 µM, first compound 10 µM): 54.4%
